Test results reported in ChEMBL document CHEMBL1123759, “Nonequilibrium opioid antagonist activity of 6,14-dideoxynaltrexone derivatives” (1987).

Assays:
Format in all cases: functional
[1] = organism: Mus musculus; experiment: Compound was evaluated for irreversible antagonist activity in Mouse vas deference(MVD) agonist (DADLE) IC50 after antagonist treatment (50 nM) divided by the agonist control IC50
[2] = organism: Cavia porcellus; experiment: Compound was evaluated for irreversible antagonist activity in Guinea pig ileum (GPI) agonist (ethylketazocine) IC50 after antagonist treatment (20 nM) divided by the agonist control IC50
[3] = organism: Mus musculus; experiment: Compound was evaluated for irreversible antagonist activity in Mouse vas deference(MVD) agonist (morphine) IC50 after antagonist treatment (50 nM) divided by the agonist control IC50
[4] = organism: Cavia porcellus; experiment: Compound was evaluated for irreversible antagonist activity in Guinea pig ileum (GPI) agonist (morphine) IC50 after antagonist treatment (200 nM) divided by the agonist control IC50 (Tissue was treated with 200 nM compound rather than 20 nM)
[5] = organism: Mus musculus; experiment: Compound was evaluated for agonist activity in Mouse vas deferens (MVD)
[6] = organism: Cavia porcellus; experiment: Compound was evaluated for agonist activity in Guinea pig ileum (GPI) partial agonist (potency ratio is based on IC10 value for compound and morphine)
[7] = organism: Cavia porcellus; experiment: Compound was evaluated for irreversible antagonist activity in Guinea pig ileum (GPI) agonist (morphine) IC50 after antagonist treatment (20 nM) divided by the agonist control IC50
[8] = organism: Cavia porcellus; experiment: Compound was evaluated for irreversible antagonist activity in Guinea pig ileum (GPI)agonist (ethylketazocine) IC50 after antagonist treatment (200 nM) divided by the agonist control IC50
[9] = organism: Cavia porcellus; experiment: Compound was evaluated for agonist activity in Guinea pig ileum (GPI)
[10] = organism: Cavia porcellus; experiment: Compound was evaluated for irreversible antagonist activity in Guinea pig ileum (GPI) agonist (morphine) IC50 after antagonist treatment (200 nM) divided by the agonist control IC50

Oc1ccc2c3c1O[C@H]1[C@H](N=C=S)CCC4C(C2)N(CC2CC2)CCC341 (some centres undefined)
IC50 ratio [1]: 1.96
IC50 ratio [2]: 1.58
IC50 ratio [3]: 11.5
IC50 ratio [4]: 70
Potency ratio [5]: 4.5
Potency ratio [6]: 3.1
IC50 ratio [7]: 4.8
IC50 ratio [8]: 2.29

O=C(CI)N[C@@H]1CCC2C3Cc4ccc(O)c5c4C2(CCN3CC2CC2)[C@H]1O5 (some centres undefined)
IC50 ratio [1]: 2.4
IC50 ratio [2]: 1.03
Potency ratio [9]: 6.27
IC50 ratio [3]: 15.6
Potency ratio [5]: 25.3
IC50 ratio [7]: 3.05

COC(=O)/C=C/C(=O)N[C@@H]1CC[C@@]2(O)[C@H]3Cc4ccc(O)c5c4[C@@]2(CCN3CC2CC2)[C@H]1O5
IC50 ratio [1]: 1.8
IC50 ratio [2]: 1
Potency ratio [9]: 5
IC50 ratio [3]: 3.9
Potency ratio [5]: 4.4
IC50 ratio [7]: 6

CN(CCCl)[C@@H]1CCC2C3Cc4ccc(O)c5c4C2(CCN3CC2CC2)[C@H]1O5 (some centres undefined)
IC50 ratio [1]: 46.77
IC50 ratio [2]: 6.25
Potency ratio [9]: 154
IC50 ratio [3]: 51
Potency ratio [5]: 380
IC50 ratio [7]: 125

COC(=O)/C=C/C(=O)N[C@@H]1CCC2C3Cc4ccc(O)c5c4C2(CCN3CC2CC2)[C@H]1O5 (some centres undefined)
IC50 ratio [1]: 2.29
IC50 ratio [2]: 1.33
Potency ratio [9]: 17.62
IC50 ratio [3]: 4.12
Potency ratio [5]: 18
IC50 ratio [10]: 2.77
IC50 ratio [7]: 1.58
IC50 ratio [8]: 0.5
